The values that follow are results of earlier work, collected in patent publication US20230212091A1, “Compositions for Increasing Nitrogen Sources Life Span in Plant Growth Mediums and Methods of Making” (Soilgenic Technologies, LLC, priority 2017, published 2023).

The conditions of this data set: at 20° C.

For `N#CN=C(N)N` [DCD, dicyandiamide], the solubility in water result is reported as “approximately 32 grams/liter”.
